Experimental data: PMC12040169 (PLOS Biology, 2025)

Assay: in vitro
Conditions: human, hela cells, % viability

Structure (SMILES) | viability at 28.5 h, 10 µM
Cc1cc(C2CCCCCN2C(=O)c2c(C)noc2C)on1 (stereo not drawn) [CBK284844] | 90%
Cc1cc(C2CCCCCN2C(=O)c2c(C)noc2C)no1 (stereo not drawn) [CBK284845] | 85.1%
COCC(=O)NC1CCN(CC2(c3ccccc3F)CCCC2)CC1 [CBK284850] | 114%
Cc1cc(C)n(CCCC(=O)N2CCc3ncc(Cl)cc3C2)n1 [CBK284852] | 103%
Cc1cc(C(F)F)nn1CC(=O)N1CCc2ncc(Cl)cc2C1 [CBK284853] | 108%
O=C(c1cc(C2CC2)on1)N1CCc2ncc(Cl)cc2C1 [CBK284855] | 106%
CC(C)NC(=O)Cn1c(-c2ccc(F)cc2)cc2cccnc21 [CBK284862] | 107%
COCC(C)NC(=O)Cn1c(-c2ccc(F)cc2)cc2cccnc21 (stereo not drawn) [CBK284863] | 113%
O=C(CCn1c(C(F)(F)F)cc2cccnc21)NC1CCCC1 [CBK284864] | 103%
O=C(CCn1c(C(F)(F)F)cc2cccnc21)NC1CCCOC1 (stereo not drawn) [CBK284867] | 109%
CN1CC(C(=O)N2CCC(c3cc4ccccc4cn3)CC2)CC1=O (stereo not drawn) [CBK284870] | 96.8%
Cc1ccc(CN2CCCC(n3c(=O)oc4ccccc43)C2)o1 (stereo not drawn) [CBK284871] | 95.6%
Cc1ccc2c(c1)C(NC(=O)C1CC1C)CC1(CCOCC1)O2 (stereo not drawn) [CBK284880] | 91.8%
Cc1cc(C[C@@H]2COC[C@H]2NCCc2ccccc2)on1 [CBK284882] | 95.5%
Cc1cc(C[C@@H]2COC[C@H]2NCc2ccc(C)c(C)c2)on1 [CBK284883] | 106%
Cc1cc(C[C@@H]2COC[C@H]2NCc2ccc(C(C)C)cc2)on1 [CBK284884] | 107%
O=C(CCn1c(C(F)(F)F)cc2cccnc21)N1CCC(O)CC1 [CBK284887] | 89.7%
O=C1NC[C@]2(CC[C@@H](C(=O)NC3CC3)CC2)Oc2ccc(Cl)cc21 [CBK284889] | 94.2%
CN(C)[C@@H]1CN(Cc2ccccc2O)C[C@H]1c1cn(C)c2ccccc12 [CBK284895] | 88.3%
Cn1nc(C2CCN(C(=O)C3CCCCC3)CC2)c2cccnc21 [CBK284897] | 78.6%
Cn1nc(C2CCN(C(=O)C3CCCC3)CC2)c2cccnc21 [CBK284899] | 101%
O=C(c1ccccc1F)N1CCC(c2n[nH]c3ncccc23)CC1 [CBK284903] | 91.7%
O=C(c1cccs1)N1CCC(c2n[nH]c3ncccc23)CC1 [CBK284904] | 92.3%
O=C(C1CCCCC1)N1CCC(c2n[nH]c3ncccc23)CC1 [CBK284905] | 85.7%

Structure (SMILES) | viability at 28.5 h, 10 µM
O=C(CCc1ccccc1)N1CCC(c2n[nH]c3ncccc23)CC1 [CBK284906] | 94.3%
O=C(Cc1ccccc1F)N1CCC(c2n[nH]c3ncccc23)CC1 [CBK284908] | 89.6%
Cc1ccnn1CCC(=O)N1CCC(c2cc3cccnc3[nH]2)CC1 [CBK284912] | 95.2%
Cc1cc(C(=O)N2CCCCCC2c2c(Cl)cnn2C)on1 (stereo not drawn) [CBK284916] | 99.3%
Cc1noc(C)c1C(=O)N1CCCCCC1c1ccn(C)n1 (stereo not drawn) [CBK284917] | 90.8%
CCCc1cc(C2CCCCCN2C(=O)c2c(C)noc2C)no1 (stereo not drawn) [CBK284919] | 87.7%
CN(C)C[C@H]1CC[C@]2(CC1)CN(C(=O)C1CC1)Cc1ccccc1O2 [CBK284920] | 101%
CCOC(=O)C1(Cc2cc(-c3ccccc3)no2)CCNCC1 [CBK284924] | 111%
CCC(CC)C(=O)N1CCCC(c2cc3cccnc3[nH]2)C1 (stereo not drawn) [CBK284926] | 100%
Cc1ccn(CCC(=O)N2CCCC(c3cc4cccnc4[nH]3)C2)n1 (stereo not drawn) [CBK284927] | 99.7%
Cn1nccc1C(=O)N1CCCC(c2cc3cccnc3[nH]2)C1 (stereo not drawn) [CBK284929] | 92.7%
CC(C)NC(=O)CCn1c(-c2ccncc2)cc2cccnc21 [CBK284931] | 111%
Cc1cc(C[C@@H]2CCC[C@H]2NCc2ccncc2)on1 [CBK284934] | 98.6%
Cc1ccc(O)c(CN[C@@H]2CCC[C@H]2Cc2cc(C)no2)c1 [CBK284936] | 101%
O=C(CC1CCCC1)N1CCCC(c2cc3cccnc3[nH]2)C1 (stereo not drawn) [CBK284940] | 98.6%
O=C(C1CCOCC1)N1CCCC(c2cc3cccnc3[nH]2)C1 (stereo not drawn) [CBK284941] | 109%
Cn1nc(C2CCN(C(=O)CC3CCCC3)CC2)c2cccnc21 [CBK284943] | 111%
Cc1ccccc1C(=O)N1CCC(O)(Cn2ccnc2C)CC1 [CBK284950] | 105%
CN(C)[C@@H]1CN(Cc2ccc(O)cc2)C[C@H]1c1cn(C)c2ccccc12 [CBK284952] | 108%
Cc1nc(C)c(C(=O)N2C3CCC2c2cc(Cl)cnc2C3)s1 (stereo not drawn) [CBK284953] | 103%
Cc1nccn1CC1(O)CCN(CC(C)c2ccccc2)CC1 (stereo not drawn) [CBK284954] | 107%
CCCn1ncc(CN2CCCC(c3cc4cccnc4[nH]3)C2)c1C (stereo not drawn) [CBK284957] | 95.1%
CN1CC(C(=O)N2CCCC(c3cc4cccnc4[nH]3)C2)CC1=O (stereo not drawn) [CBK284958] | 92.5%
O=C(CCCn1ccnc1)N1CCCC(c2cc3cccnc3[nH]2)C1 (stereo not drawn) [CBK284959] | 107%

Structure (SMILES) | viability at 28.5 h, 10 µM
O=C(CCn1c(C(F)(F)F)cc2cccnc21)N1CCCC1 [CBK284962] | 106%
O=C(CCn1c(-c2ccccn2)cc2cccnc21)NC1CCCC1 [CBK284965] | 98.3%
CC(=O)NC(c1nccs1)C1CCCN(C(=O)C2CCCC2)C1 (stereo not drawn) [CBK284966] | 101%
CC(C)c1cc(C(=O)N2CCCCCC2c2cnn(C)c2)no1 (stereo not drawn) [CBK284971] | 108%
Cn1ncc(Cl)c1C1CCCCCN1C(=O)c1cc(C2CC2)on1 (stereo not drawn) [CBK284973] | 102%
O=C(C1CCCO1)N1CCCC(c2cc3cccnc3[nH]2)C1 (stereo not drawn) [CBK284978] | 101%
O=C(C1CCCC1)N1CCCC(c2cc3cccnc3[nH]2)C1 (stereo not drawn) [CBK284979] | 105%
CC1CN(C(=O)CCn2c(C(F)F)cc3cccnc32)CC(C)O1 (stereo not drawn) [CBK284984] | 95.3%
Cc1cc(C(=O)N2CCC(c3nn(C)c4ncccc34)CC2)cs1 [CBK284987] | 104%
O=C1CCC(C(=O)N2CCCC(c3cc4ccccc4cn3)C2)CC1 (stereo not drawn) [CBK284989] | 102%
O=C(c1c(F)cccc1F)N1C2CCC1c1snnc1C2 (stereo not drawn) [CBK284990] | 91.5%
CC(=O)N1Cc2ccccc2OC2(CCCN(C(=O)C3CC3)C2)C1 (stereo not drawn) [CBK284991] | 97.1%
O=C(c1ccco1)N1CCN(C2C3CCCC2CNC3)CC1 (stereo not drawn) [CBK284992] | 94.4%
CCn1cncc1CN1CCCC(c2cc3cccnc3[nH]2)C1 (stereo not drawn) [CBK284993] | 98.5%
CC(C)C(=O)N1CCCC(c2cc3cccnc3[nH]2)C1 (stereo not drawn) [CBK284994] | 96.4%
Cc1nc(C)c(C(=O)N2CCCC(c3cc4cccnc4[nH]3)C2)s1 (stereo not drawn) [CBK284995] | 97.4%
CC(CC(=O)N1CCCC(c2cc3cccnc3[nH]2)C1)n1cccn1 (stereo not drawn) [CBK284996] | 86.2%
Cc1nc(C)c(C(=O)N2CCC(c3cc4cccnc4[nH]3)CC2)s1 [CBK284998] | 88.5%
O=C(Cc1ccsc1)N1CCC(c2cc3cccnc3[nH]2)CC1 [CBK285000] | 85.6%
CCC(C)NC(=O)Cn1c(C2CCNCC2)cc2cccnc21 (stereo not drawn) [CBK285003] | 103%
Cc1csc(C(Cc2cccs2)NC(=O)Cc2ccccn2)n1 (stereo not drawn) [CBK285005] | 94.3%
CCC(=O)N1C[C@@H](N(C)C)[C@H](c2cn(C)c3ccccc23)C1 [CBK285008] | 91.3%
COCC(C)NC(=O)Cn1cccc2cc(C(F)F)nc1-2 (stereo not drawn) [CBK285011] | 104%
CC(C)N(C(=O)Cn1cccc2cc(C(F)F)nc1-2)C(C)C [CBK285012] | 85.5%

Structure (SMILES) | viability at 28.5 h, 10 µM
O=C(Cn1c(C2CCNCC2)cc2cccnc21)N1CCCC1 [CBK285013] | 96.3%
O=C(Cn1c(C2CCCNC2)cc2cccnc21)N1CCCCCC1 (stereo not drawn) [CBK285014] | 86.3%
Nc1cc2ccccc2nc1C1CCN(C(=O)C2CC=CCC2)CC1 (stereo not drawn) [CBK285016] | 88.9%
Cc1nccn1CC1(O)CCN(Cc2cn(C)c3ccccc23)CC1 [CBK285017] | 102%
Cn1nc(C2CCN(C(=O)c3ccccc3F)CC2)c2cccnc21 [CBK285019] | 106%
CC1CCN(Cc2c(C3CCNCC3)[nH]c3ncccc23)CC1 [CBK285022] | 91.7%
CN1CCN(C(=O)CCn2c(C(F)F)cc3cccnc32)CC1 [CBK285023] | 101%
CC1CCCCN1C(=O)CCn1c(C(F)F)cc2cccnc21 (stereo not drawn) [CBK285024] | 89.5%
O=C(CCn1c(C(F)F)cc2cccnc21)NCc1ccncc1 [CBK285027] | 103%
CC(CC(=O)N1CCC(c2cc3cccnc3[nH]2)CC1)n1ccnc1 (stereo not drawn) [CBK285028] | 107%
Cc1[nH]ncc1CN1CCCC(c2cc3ccccc3cn2)C1 (stereo not drawn) [CBK285029] | 108%
CC(=O)NC(c1ccccn1)C1CCCN(C(=O)C2CCCCC2)C1 (stereo not drawn) [CBK285031] | 109%
CC(=O)NC(c1ccccn1)C1CCCN(C(=O)C2CC2C)C1 (stereo not drawn) [CBK285032] | 84.2%
CC(CC(=O)N1CCCC(c2cc3cccnc3[nH]2)C1)n1ccnc1 (stereo not drawn) [CBK285034] | 105%
CC(C)(C)C(=O)N1CCC(c2nc3ccccc3cc2N)CC1 [CBK285039] | 101%
Cc1nn(C)cc1CN1CCCC(c2cc3ccccc3cn2)C1 (stereo not drawn) [CBK285041] | 108%
Cc1csc(C(Cc2ccsc2)NC(=O)c2c(C)noc2C)n1 (stereo not drawn) [CBK285045] | 102%
Cc1csc(C(Cc2ccsc2)NC(=O)CN2CCCC2=O)n1 (stereo not drawn) [CBK285046] | 81.9%
Cc1csc(C(Cc2cccs2)NCC2CCOC2)n1 (stereo not drawn) [CBK285051] | 110%
O=C(NC(Cc1cccs1)c1nccs1)c1cc[nH]n1 (stereo not drawn) [CBK285052] | 87.4%
O=C(NC(Cc1cccs1)c1nccs1)C1CCOC1 (stereo not drawn) [CBK285054] | 80.6%
